# Values joined by “and” are separate entries in the source; they are usually repeats but may differ in a detail not shown here. Equal values may be shown once. Read-outs that look alike come from different tables or passages of the source.
# How the values were obtained:
# [1] = Serial tail vein bleed PK study in SD rats: methylone measured in plasma after IV or oral methylone or oral methylone prodrugs; type: in vivo, Sprague Dawley rats; settings: methylone in plasma, male SD rats; for half-life: read-out: T½ (converted)
# In short: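 Three male Sprague-Dawley rats received methylone at 1 mg/kg IV (saline) or 10 mg/kg PO, or prodrugs at 10 mg/kg PO in 10% DMSO/20% PEG400/70% water, doses as methylone equivalents. Methylone measured in serial plasma samples. Non-compartmental PK parameters derived from nominal doses.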
# [2] = cited from earlier work
# [3] = male, Sprague-Dawley, rat, plasma, iv, 1 mg/kg, methylone 1 mg/kg IV, individual animals
# [4] = male, Sprague-Dawley, rat, plasma, iv, 1 mg/kg, methylone 1 mg/kg IV, mean
# [5] = male, Sprague-Dawley, rat, plasma, po, 10 mg/kg, methylone 10 mg/kg oral, individual animals
# [6] = male, Sprague-Dawley, rat, plasma, po, 10 mg/kg, methylone 10 mg/kg oral, mean
# [7] = methylone 1 mg/kg IV, individual animals
# [8] = methylone 10 mg/kg oral, individual animals
compound,measurement,setting,value
"CNC(C)C(=O)c1ccc2c(c1)OCO2 (racemic) [Methylone, 3,4-methylenedioxy-N-methylcathinone, reference compound]",AUC(0-t),[1]; [3],163 ng·h/mL
same,AUC(0-inf),"[1]; male, Sprague-Dawley, rat, plasma, iv, 1 mg/kg, methylone 1 mg/kg IV, individual animals, read-out: AUC0-inf",168 ng·h/mL
same,Cmax,"[1]; male, Sprague-Dawley, rat, plasma, iv, 1 mg/kg, methylone 1 mg/kg IV, individual animals, read-out: Cmax",192 ng/mL
same,Tmax,"[1]; male, Sprague-Dawley, rat, plasma, iv, 1 mg/kg, methylone 1 mg/kg IV, individual animals, read-out: Tmax",15 min
same,half-life,[1]; [3],24.6 min
same,AUC(0-t),[1]; [4],142 ng·h/mL
same,AUC(0-inf),"[1]; male, Sprague-Dawley, rat, plasma, iv, 1 mg/kg, methylone 1 mg/kg IV, mean, read-out: AUC0-inf",145 ng·h/mL
same,Cmax,"[1]; male, Sprague-Dawley, rat, plasma, iv, 1 mg/kg, methylone 1 mg/kg IV, mean, read-out: Cmax",172 ng/mL
same,Tmax,"[1]; male, Sprague-Dawley, rat, plasma, iv, 1 mg/kg, methylone 1 mg/kg IV, mean, read-out: Tmax",15 min
same,half-life,[1]; [4],23.7 min
same,AUC(0-t),[1]; [5],636 ng·h/mL
same,AUC(0-inf),"[1]; male, Sprague-Dawley, rat, plasma, po, 10 mg/kg, methylone 10 mg/kg oral, individual animals, read-out: AUC0-inf",729 ng·h/mL
same,half-life,[1]; [5],135 min
same,AUC(0-t),[1]; [6],681 ng·h/mL
same,AUC(0-inf),"[1]; male, Sprague-Dawley, rat, plasma, po, 10 mg/kg, methylone 10 mg/kg oral, mean, read-out: AUC0-inf",890 ng·h/mL
same,Cmax,"[1]; male, Sprague-Dawley, rat, plasma, po, 10 mg/kg, methylone 10 mg/kg oral, mean, read-out: Cmax",170 ng/mL
same,Tmax,"[1]; male, Sprague-Dawley, rat, plasma, po, 10 mg/kg, methylone 10 mg/kg oral, mean, read-out: Tmax",70.2 min
same,half-life,[1]; [6],148 min
same,AUC0-last,[1]; [7],134 ng·h/mL and 128 ng·h/mL
same,AUC(0-inf),[1]; [7],136 ng·h/mL and 131 ng·h/mL
same,Cmax,[1]; [7],165 ng/mL and 159 ng/mL
same,Tlast,[1]; [7],2.0 h
same,T½,[1]; [7],22.8 min and 24 min
same,Tlast,"[1]; methylone 1 mg/kg IV, mean",2.0 h
same,AUC0-last,[1]; [8],520 ng·h/mL and 888 ng·h/mL
same,AUC(0-inf),[1]; [8],1050 ng·h/mL
same,Cmax,[1]; [8],130 ng/mL and 119 ng/mL and 260 ng/mL
same,Tlast,[1]; [8],7.00 h
same,Tmax,[1]; [8],60 min and 120 min and 30 min
same,T½,[1]; [8],160 min
same,Tlast,"[1]; methylone 10 mg/kg oral, mean",7.00 h
same,reported time to achieve peak effects,"[2]; after oral dosing, Poyatos et al., 2021",1 to 2 h
same,Oral Methylone Dose for Drug Activity Level Very Strong,"[2]; human, oral, modified from WHO 2014",≥270 mg
same,prolongation of duration of effects by re-dose,"[2]; re-dose of one-third to one-half the initial dose, WHO 2014",approximately one

# — US20250129054A1 (Terran Biosciences Inc., priority 2022, published 2025)
